Experimental findings from article PMC2754381 (Biochemistry, 2009) are described below.

This assay concerns the target MtOMPDC (wildtype OMPDC from Methanothermobacter thermautotrophicus) (Methanothermobacter thermautotrophicus, UniProt O26232). As to the kind of experiment: OMP decarboxylation followed at […] nm. The class given is biochemical.

SMILES strings stand for the structures.

By Ki is commonly meant the dissociation constant of the complex between target and ligand, obtained from inhibition or displacement. The low end stands for tighter binding, the high end for weaker binding.

Sequence of MtOMPDC (wildtype OMPDC from Methanothermobacter thermautotrophicus) (O26232 whole entry): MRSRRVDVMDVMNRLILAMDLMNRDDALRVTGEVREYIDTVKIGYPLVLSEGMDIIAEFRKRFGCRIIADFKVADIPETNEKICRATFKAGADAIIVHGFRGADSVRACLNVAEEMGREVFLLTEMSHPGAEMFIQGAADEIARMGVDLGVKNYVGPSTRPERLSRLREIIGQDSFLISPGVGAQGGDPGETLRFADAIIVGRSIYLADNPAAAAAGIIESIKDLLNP

`O=c1ccn([C@@H]2O[C@H](COP(=O)(O)O)[C@@H](O)[C@H]2O)c(=O)[nH]1` [UMP, uridine 5′-monophosphate] showed a Ki of about 100 µM.
